Assays:
[1] = tested on: PROXY-1 mRNA; assay: PROXY-1 mRNA levels in HTR-8/SVneo invasive trophoblast cells; type: cell-based, human; conditions: 1% O2
Excerpt: PROXY-1 mRNA levels were very low in cells cultured in 20% O2.

[2] = tested on: prostate specific antigen (PSA); assay: PSA levels in prostate cancer patients on low dose transdermal GTN; type: in vivo, human
Procedure: Patients with prostatic adenocarcinoma were selected for this study because the progression of this type of cancer correlates well with the plasma levels of prostate-specific antigen (PSA). Thus, the outcome of low dose NO mimetic therapy can be easily assessed by measuring PSA levels. […] Plasma PSA levels were measured via a commercially available immunoassay kit such as Immuno 1 (Bayer Corporation).
Methods: Patients with a previous history of prostatectomy that have experienced biochemical failure as per the ASTRO criteria (three successive rises in PSA), PSA<10 (units), stable with sub-clinical disease were included in the study after signing an informed consent. All patients were placed on treatment with continuous low dose transdermal nitroglycerin (˜0.03 mg/hr, 24 hours a day). Subjects returned to the study centre for monthly PSA measurements. Subjects were withdrawn from the study if there was evidence of disease progression or other intervening medical events.

[3] = tested on: MDA-MB-231 breast carcinoma spheroids; assay: Clonogenic survival of MDA-MB-231 spheroids after doxorubicin; type: cell-based, human
Procedure: Following initial cell plating, spheroids formed for 24, 48, 72, 96 or 120 h. At each time point, spheroids were exposed to 200 μM of doxorubicin, then disaggregated and plated for assessment of colony formation (survival).
Spheroids were allowed to form for 72 h. DETA/NO was applied for the final 24 h of spheroid formation. Spheroids were then exposed to doxorubicin for 1 h, prior to disaggregation and plating for assessment of survival by clonogenic assay.
Using human MDA-MB-231 breast carcinoma cells in clonogenic assays, survival was determined following doxorubicin exposure and NO mimetic administration to both monolayer and spheroid cultures.

[4] = tested on: uPAR protein; assay: Western blot analysis of uPAR protein in MDA-MB-231 breast carcinoma cells; type: cell-based, human
Procedure: Following incubations, the cells were lysed using a buffer containing 40 mM HEPES pH 7.2, 100 mM NaCl, 20% glycerol, 0.1 mM EDTA pH 8.0, 0.2% Triton X-100, 1 mM DTT, and 2 mM PMSF. The lysates were then subjected to homogenization, DNA shearing (10 times with a 25⅝-gauge needle), boiling (5 minutes) and centrifugation (15 minutes, 14000 g). The supernatant was collected and stored at −80° C. until use. The samples were subjected to SDS-polyacrylamide gel electrophoresis (PAGE) and the resolved proteins were transferred to an Immobilon-P membrane using a wet transfer apparatus (Bio-Rad Laboratories, Mississauga, ON). The membranes were blocked overnight at 4° C. in a solution containing 1% PBS, and 0.01% Tween20 (PBS-T) as well as 5% casein. The blots were subsequently incubated for 1.5 hours with the monoclonal anti-uPAR antibody [MoAb 3937], followed by six 5 minute washes with PBS-T. The membranes were then incubated with a horseradish peroxidase labeled goat anti-mouse IgG secondary antibody for 1.5 hours. Following six additional 5 minute washes with PBS-T, the antigen was detected by enhanced chemiluminescence and the blots were exposed onto Dupont Reflection NEF film.
Following incubation, the cells were lysed using a buffer containing 40 mM HEPES pH 7.2, 100 mM NaCl, 20% glycerol, 0.1 mM EDTA pH 8.0, 0.2% Triton X-100, 1 mM dithiothreitol (DTT), and 2 mM phenylmethyl sulfonyl fluoride (PMSF). The lysates were then subjected to homogenization, DNA shearing (10 times with a 25⅝-gauge needle), boiling (5 minutes) and centrifugation (15 minutes at 14,000×g). The supernatant was collected and stored at −80° C. until use. The samples were subjected to SDS-polyacrylamide gel electrophoresis (PAGE) and the resolved proteins were transferred to an Immobilon-P membrane (Millipore Corp., Bedford, Mass.) using a wet transfer apparatus (BioRad Laboratories, Mississauga, ON). The membranes were blocked overnight at 4° C. in a solution containing 1% PBS, and 0.01% Tween 20 (PBS-T) as well as 5% dry milk powder. The blots were subsequently incubated for 1.5 hours with the monoclonal anti-uPAR (MoAb 3937; American Diagnostica Inc., Greenwich, Conn.), or a polyclonal soluble guanylate cyclase (sGC) antiserum (Cayman Chemical, Ann Arbor, Mich.) followed by six 5-minute washes with PBS-T. Subsequently, the uPAR membranes were incubated for 1 hour with a horseradish peroxidase labelled goat anti-mouse IgG secondary antibody (Bio-Rad, Hercules, Calif.) and the sGC membranes were incubated for 1 hour with a goat anti-rabbit IgG horseradish peroxidase conjugate (VECTOR Laboratories Inc., Burlingame, Calif.). Following six additional 5-minute washes with PBS-T, the antigen was detected by enhanced chemiluminescence (Amersham Canada Inc., Mississauga, ON) and the blots were exposed onto Dupont Reflection NEF film.

[5] = tested on: PAI-1 mRNA; assay: Northern blot of PAI-1 mRNA in breast cancer cells; type: cell-based, human; conditions: SNP 10^−12 M, GTN 10^−11 M
Procedure: Following incubation, the total cellular RNA from the cells was isolated using the Gentra […] RNA Isolation Kit. The isolated RNA was subsequently separated by electrophoresis, and transferred to charged nylon membranes. The membranes were prehybridized at 42° C. for approximately 2 hours in a solution containing 50% formamide, 5×Denhardt's solution, 0.5% sodium dodecyl sulfate (SDS), 6×SSC (1×SSC=0.15 M NaCl, 15 mM sodium citrate, pH 7.0) and 100 μg/mL denatured salmon sperm DNA. They were then hybridized with a [^32P]-dCTP-labeled cDNA probe (uPAR or PAI-1) for approximately 24 hours at 42° C. in a solution composed of 6×SSC, 0.5% SDS, 100 μg/mL denatured salmon sperm DNA and 50% formamide, and containing a cDNA probe (uPAR or PAI-1) which was labeled with [^32P]-dCTP using a Pharmacia Oligolabelling kit. Following serial washes, the membrane was used to expose Dupont Reflection NEF film. After 1-4 days, the film was developed and analyzed. To correct for differences in the amount of RNA loaded in each sample, 28S rRNA was used.

O=[N+]([O-])OCC(CO[N+](=O)[O-])O[N+](=O)[O-] [GTN, glyceryl trinitrate]
PROXY-1 mRNA levels in hypoxic cells ([1]; 10^−7 M GTN): increased
PROXY-1 mRNA levels in hypoxic cells ([1]; 10^−11 M GTN): much lower
plasma PSA levels ([2]; GTN 0.033 mg/hour transdermal patches, recurrent prostatic adenocarcinoma, two patients, within two months): sharp decline
PSA velocity, first two treatment episodes ([2]; one patient, prostate intact, on anti-androgen therapy, GTN 0.03 mg/hour, about one month each): reduction of PSA velocity
PSA levels, third treatment episode ([2]; one patient, prostate intact, GTN 0.03 mg/hour, about one month): decrease in PSA levels
time to PSA decrease with combined radiation therapy ([2]; one patient, chronic transdermal GTN 0.03 mg/hour, radiation alone expected average twelve months): within three months
mean PSA velocity on therapy ([2]; transdermal ~0.03 mg/hr 24 hours a day, 5 or more months of therapy, decreased from 14%/month, post-prostatectomy biochemical failure): 5.4 %/month
drug related adverse events ([2]; transdermal ~0.03 mg/hr, 24 hours a day): No patients experienced drug related adverse events
survival of control (doxorubicin-untreated) cells ([3]; DETA 0.1 mM and 2 μM, GTN 0.1 nM and 1 μM): did not affect the survival
attenuation of resistance to 200 μM doxorubicin associated with 3D culture ([3]; spheroids): 30%
uPAR protein levels vs 20% O2 alone ([4]; combination of L-NMMA (0.5 mM) and GTN (0.1 nM), 20% O2): no significant increase
hypoxic upregulation of uPAR protein expression ([4]; single doses GTN 1 pM, 1 nM and 0.1 μM, 24 hours 0.5% oxygen): prevent the upregulation
PAI-1 mRNA levels vs untreated hypoxic cells [5]: significantly decreased
